From patent US6313171A, “Method for preventing or treating elevated blood lipid level-related diseases by administering cinnamic acid derivatives” (Korea Research Institute of Bioscience & Biotechnology, priority 1998, dated 2001)

target: T1, HMG-CoA reductase (Rattus norvegicus, UniProt P51639); assay: HMG-CoA reductase activity assay, liver microsomes of the fed rats; type: biochemical; conditions: liver microsomes of rats fed 0.1% in 1% cholesterol diet; Control 0
T1 construct: the supernatant was ultracentrifuged at 100,000×g for 60 minutes to obtain microsomal precipitates; from tissue; host or cells: rat liver microsomes
T1 sequence (P51639 1-887): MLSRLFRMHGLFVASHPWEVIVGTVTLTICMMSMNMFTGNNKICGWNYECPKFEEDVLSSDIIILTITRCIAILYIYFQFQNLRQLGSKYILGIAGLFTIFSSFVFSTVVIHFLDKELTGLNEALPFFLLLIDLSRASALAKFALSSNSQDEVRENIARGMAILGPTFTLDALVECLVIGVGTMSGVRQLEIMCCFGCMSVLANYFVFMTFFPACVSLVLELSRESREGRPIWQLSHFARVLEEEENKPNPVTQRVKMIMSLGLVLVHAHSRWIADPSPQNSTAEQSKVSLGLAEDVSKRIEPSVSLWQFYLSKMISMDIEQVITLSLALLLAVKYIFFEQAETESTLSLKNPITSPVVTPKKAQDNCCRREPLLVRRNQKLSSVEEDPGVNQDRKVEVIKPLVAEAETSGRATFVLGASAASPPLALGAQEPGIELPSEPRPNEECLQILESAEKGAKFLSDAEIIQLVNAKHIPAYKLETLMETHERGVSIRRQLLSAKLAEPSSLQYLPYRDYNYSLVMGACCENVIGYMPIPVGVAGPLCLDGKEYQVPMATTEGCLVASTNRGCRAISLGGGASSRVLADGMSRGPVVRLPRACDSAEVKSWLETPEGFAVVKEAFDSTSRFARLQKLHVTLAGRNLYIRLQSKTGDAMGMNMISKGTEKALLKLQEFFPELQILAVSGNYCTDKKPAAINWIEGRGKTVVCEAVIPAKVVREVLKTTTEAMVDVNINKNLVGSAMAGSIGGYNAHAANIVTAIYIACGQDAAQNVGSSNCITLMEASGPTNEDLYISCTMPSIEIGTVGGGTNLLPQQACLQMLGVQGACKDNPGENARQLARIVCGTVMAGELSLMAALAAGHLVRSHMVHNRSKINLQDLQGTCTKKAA
Method: In order to determine the activity of HMG-CoA reductase, Hulcher's method was employed after some modification (see J. Lipid Res., 14, 625-641(1973)). In this method, the concentration of the coenzyme-A (CoA-SH), which is produced when HMG-CoA is reduced to a mevalonate salt by the action of HMG-CoA reductase, is determined by spectroscopy and the activity of HMG-CoA reductase is calculated therefrom.
3 g of liver tissue taken from each group of rats of Example 2 was washed successively with 100 ml of a cold saline (0.15 M NaCl) and 100 ml of a cold buffer solution A (0.1 M triethanolamine, HCl/0.2 M EDTA/2 mM dithiothreitol (DTT)). The cold buffer solution A was added to the liver tissue in an amount of 2 ml per 1 g of the liver tissue and the mixture was homogenized with a homogenizer. The homogenate was centrifuged at 15,000×g for 15 minutes, and then, the supernatant was ultracentrifuged at 100,000×g for 60 minutes to obtain microsomal precipitates. The precipitates thus obtained was washed with a cold buffer solution A and kept in a 1.5 ml tube at -70° C.
The reaction substrates used in HMG-CoA reductase activity assay were as follows: i) buffer solution B: 0.1 M triethanolamine, HCl/0.02 M EDTA (pH 7.4), ii) HMG-CoA solution: 150 μmoles/culture medium, and iii) NADPH solution: 2 μmoles/culture medium.
The suspension (microsome) was mixed with the reaction substrate and the mixture was placed in a centrifugation tube and reacted at 37° C. for 30 minutes. […]
Then, the reactant was mixed with 20 μl of DTNB buffer solution (3 mM DTNB/0.1 M triethanolamine/0.2 M EDTA, pH 7.4) and the absorbance of the mixture was determined at 412 nm to calculate the amount of CoA-SH (activity of HMG-CoA reductase).
The extent of inhibition of HMG-CoA reductase activity by cinnamic acid derivatives was calculated based on the above result.

SMILES | Inhibition of HMG-CoA reductase activity [%]
O=C(O)/C=C/c1ccc(O)c(O)c1 [3,4-dihydroxycinnamic acid] | 44
O=C(O)CCc1ccc(O)c(O)c1 [3,4-dihydroxyhydrocinnamic acid] | 70
O=C(O)/C=C/c1ccc(O)cc1 [4-Hydroxycinnamic acid, 4-hydroxycinnamic acid] | 31
